Laboratory results as given in ChEMBL document CHEMBL6134890, “Terminally Symmetric β-Turn Peptides for Multidrug-Resistant Bacterial Infections” (J Med Chem, 2025).
≈ marks a conversion by molar mass, not a printed value. Calls of active or inactive are those of the source. The rule behind the calls is not given here. Bridge positions count the residues as written; N and C are the ends. Square brackets hold non-standard residues; d marks the D form. Peptide text beside a SMILES is read from it. * marks the point of attachment. X1 = CC[C@H](C)CCCCC(=O)*; dDab = NCC[C@@H](N)C(=O)O; Dab = NCC[C@H](N)C(=O)O

Assays:
Staphylococcus aureus [1] = experiment: Antimicrobial activity against multi-drug resistant Staphylococcus aureus assessed as reduction in bacterial growth at 2 times MIC measured after 1 hrs in presence of trypsin by microplate reader based analysis; type: functional, organism-based
Enterococcus faecalis = experiment: Antimicrobial activity against multi-drug resistant Enterococcus faecalis assessed as reduction in bacterial growth by broth dilution method; type: functional
[2] = Hemolytic activity in human Red blood cell assessed as hemolysis incubated for 1 hrs by microplate reader based analysis; type: toxicity; settings: erythrocyte
[3] = test system: Staphylococcus epidermidis; experiment: Antimicrobial activity against multi-drug resistant Staphylococcus epidermidis assessed as reduction in bacterial growth by broth dilution method; type: functional
Escherichia coli [4] = experiment: Antimicrobial activity against multi-drug resistant Escherichia coli assessed as fold increase in MIC measured after 6 hrs in 25% plasma; type: functional
Escherichia coli [5] = experiment: Antimicrobial activity against multi-drug resistant Escherichia coli assessed as reduction in bacterial growth at 2 times MIC measured after 1 hrs in presence of chymotrypsin by microplate reader based analysis; type: functional, organism-based
Klebsiella pneumoniae = experiment: Antimicrobial activity against multi-drug resistant Klebsiella pneumoniae assessed as reduction in bacterial growth by broth dilution method; type: functional
Staphylococcus aureus [6] = experiment: Antimicrobial activity against multi-drug resistant Staphylococcus aureus assessed as fold increase in MIC in presence of MgCl2; type: functional
Staphylococcus aureus [7] = experiment: Antimicrobial activity against Staphylococcus aureus ATCC 25923 assessed as reduction in bacterial growth by broth dilution method; type: functional
Staphylococcus aureus [8] = experiment: Antimicrobial activity against multi-drug resistant Staphylococcus aureus assessed as fold increase in MIC measured after 6 hrs in 25% plasma; type: functional
HEK-293T [9] = experiment: Cytotoxicity against HEK293T cells at 2 to 256 uM measured after 24 hrs by CCK-8 method; type: toxicity, cell-based; settings: human, dose 2-256 µM
Staphylococcus aureus [10] = experiment: Antimicrobial activity against multi-drug resistant Staphylococcus aureus assessed as fold increase in MIC in presence of NaCl; type: functional
[11] = Half life of the compound in 25% plasma; type: ADME, cell-free
Escherichia coli [12] = experiment: Antimicrobial activity against multi-drug resistant Escherichia coli assessed as reduction in bacterial growth at 2 times MIC measured after 1 hrs in presence of trypsin by microplate reader based analysis; type: functional, organism-based
Escherichia coli [13] = experiment: Antimicrobial activity against multi-drug resistant Escherichia coli assessed as fold increase in MIC in presence of MgCl2; type: functional
Staphylococcus aureus [14] = experiment: Antimicrobial activity against multi-drug resistant Staphylococcus aureus assessed as reduction in bacterial growth at 2 times MIC measured after 1 hrs in presence of chymotrypsin by microplate reader based analysis; type: functional, organism-based
Acinetobacter baumannii = experiment: Antimicrobial activity against multi-drug resistant Acinetobacter baumannii assessed as reduction in bacterial growth by broth dilution method; type: functional
Staphylococcus aureus [15] = experiment: Antimicrobial activity against multi-drug resistant Staphylococcus aureus assessed as reduction in bacterial growth by broth dilution method; type: functional
BEAS-2B = experiment: Cytotoxicity against human BEAS-2B cells at 2 to 256 uM measured after 24 hrs by CCK-8 method; type: toxicity, cell-based; settings: dose 2-256 µM
Escherichia coli [16] = experiment: Antimicrobial activity against multi-drug resistant Escherichia coli assessed as fold increase in MIC in presence of NaCl; type: functional
Escherichia coli [17] = experiment: Antimicrobial activity against Escherichia coli ATCC 25922 assessed as reduction in bacterial growth by broth dilution method; type: functional
L02 [18] = experiment: Cytotoxicity against human LO2 cells at 2 to 256 uM measured after 24 hrs by CCK-8 method; type: toxicity, cell-based; settings: l02, 24 h, dose 2-256 µM
Escherichia coli [19] = experiment: Antimicrobial activity against multi-drug resistant Escherichia coli assessed as reduction in bacterial growth by broth dilution method; type: functional
Escherichia coli [20] = experiment: Bactericidal activity against multi-drug resistant Escherichia coli at 1 times MIC preincubated with LPS for 1 hrs followed by bacterial addition and measured after 18 hrs by microplate reader based analysis; type: functional, organism-based; settings: time 19.0 hrs
Staphylococcus aureus [21] = experiment: Antibacterial activity against Staphylococcus aureus ATCC 25923 at sub-inhibitory concentration measured after 7 passages for 18 hrs; type: functional, organism-based
Cell membrane [22] = experiment: Induction of outer membrane permeabilization in multi-drug resistant Escherichia coli assessed as NPN uptake at 1 to 4 times MIC measured within 1 min by fluorescence based analysis; type: subcellular
Cell membrane [23] = experiment: Induction of cytoplasmic membrane depolarization in multi-drug resistant Escherichia coli at 1 to 4 times MIC measured within 1 min by DiSC3-5 fluorescent dye based analysis
Cell membrane [24] = experiment: Induction of cytoplasmic membrane depolarization in multi-drug resistant Staphylococcus aureus at 1 to 4 times MIC measured within 1 min by DiSC3-5 fluorescent dye based analysis
Escherichia coli [25] = experiment: Antibacterial activity against Escherichia coli […] at sub-inhibitory concentration measured after 7 passages for 18 hrs; type: functional, organism-based
Escherichia coli [26] = experiment: Antibacterial activity against multidrug resistant Escherichia coli infected in male Kunming mouse model assessed as reduction in tissue hemorrhage by H and E staining based analysis; type: functional, organism-based
Escherichia coli [27] = experiment: Antibacterial activity against multidrug resistant Escherichia coli infected in male Kunming mouse model assessed as wound healing measured after 11 days by caliper method; type: functional, organism-based; settings: time 11.0 day
Escherichia coli [28] = experiment: Antibacterial activity against multidrug resistant Escherichia coli infected in male Kunming mouse model assessed as recovery of mouse weight measured after 11 days; type: functional, organism-based; settings: time 11.0 day
Escherichia coli [29] = experiment: Antibacterial activity against multidrug resistant Escherichia coli infected in male Kunming mouse model assessed as reduction in wound size measured after 3 to 5 days by caliper method; type: functional, organism-based; settings: time 3-5 day
Escherichia coli [30] = experiment: Antibacterial activity against multidrug resistant Escherichia coli infected in male Kunming mouse model assessed as reduction in IL-6 expression by immunochemical analysis; type: functional, organism-based
Escherichia coli [31] = experiment: Antibacterial activity against Escherichia coli ATCC 25922 infected in male Kunming mouse model assessed as reduction in bacterial load measured after 11 days; type: functional, organism-based; settings: time 11.0 day
Escherichia coli [32] = experiment: Antibacterial activity against multidrug resistant Escherichia coli infected in male Kunming mouse model assessed as scabs thickening measured after 7 days by caliper method; type: functional, organism-based; settings: time 7.0 day
Escherichia coli [33] = experiment: Antibacterial activity against multidrug resistant Escherichia coli infected in male Kunming mouse model assessed as reduction in epidermal thickening by H and E staining based analysis; type: functional, organism-based
Escherichia coli [34] = experiment: Antibacterial activity against multidrug resistant Escherichia coli infected in male Kunming mouse model assessed as inflammatory cell infiltration by H and E staining based analysis; type: functional, organism-based
Staphylococcus aureus [35] = experiment: Drug resistance, ratio of MIC for Staphylococcus aureus ATCC 25923 after 15 passages exposure to MIC for Staphylococcus aureus ATCC 25923 after first exposure; type: functional
Escherichia coli [36] = experiment: Drug resistance, ratio of MIC for Escherichia coli ATCC 25922 after 15 passages exposure to MIC for Escherichia coli ATCC 25922 after first exposure; type: functional
L02 [37] = experiment: Cytotoxicity against human LO2 cells at 256 uM measured after 24 hrs by CCK-8 method relative to control; type: toxicity, cell-based; settings: l02, 24 h
HEK-293T [38] = experiment: Cytotoxicity against HEK293T cells at 256 uM measured after 24 hrs by CCK-8 method relative to control; type: toxicity, cell-based; settings: human

Compound	MIC (Enterococcus faecalis)	HC10 [2]	MIC [3]	MIC (Klebsiella pneumoniae)	MIC (Staphylococcus aureus [7])	MIC (Acinetobacter baumannii)	MIC (Staphylococcus aureus [15])	MIC (Escherichia coli [17])	MIC (Escherichia coli [19])	other results
CC(C)C[C@H](NC(=O)[C@H](CCCCN)NC(=O)[C@H](CC(C)C)NC(=O)[C@H](CCCCN)NC(=O)[C@@H]1CCCN1C(=O)[C@H](Cc1c[nH]c2ccccc12)NC(=O)[C@H](Cc1c[nH]c2ccccc12)NC(=O)[C@H](Cc1c[nH]c2ccccc12)NC(=O)[C@@H]1CCCN1C(=O)[C@H](CCCCN)NC(=O)[C@H](CC(C)C)NC(=O)[C@H](CCCCN)NC(=O)[C@H](CC(C)C)NC(=O)[C@@H](N)CCCCN)C(=O)N[C@@H](CCCCN)C(N)=O (H-KLKLKPWWWPKLKLK-NH2)	8 µM (≈ 15.9 µg/mL)	> 256 µM	8 µM (≈ 15.9 µg/mL)	4 µM (≈ 7.97 µg/mL)	8 µM (≈ 15.9 µg/mL)	8 µM (≈ 15.9 µg/mL)	8 µM (≈ 15.9 µg/mL)	4 µM (≈ 7.97 µg/mL)	4 µM (≈ 7.97 µg/mL)	Activity (Staphylococcus aureus [1]): inactive; fold change (FC) (Escherichia coli [4]): 2; Activity (Escherichia coli [5]): inactive; fold change (FC) (Staphylococcus aureus [6]): 2; fold change (FC) (Staphylococcus aureus [8]): 2; Activity (HEK-293T [9]): Toxic; fold change (FC) (Staphylococcus aureus [10]): 2; half-life [11]: 35.4 h; Activity (Escherichia coli [12]): inactive; fold change (FC) (Escherichia coli [13]): 2; Activity (Staphylococcus aureus [14]): inactive; Activity (BEAS-2B): Toxic; fold change (FC) (Escherichia coli [16]): 2; Activity (L02 [18]): Toxic
CC(C)CCCCC(=O)N[C@@H](CCN)C(=O)N[C@H](C(=O)N[C@@H](CCN)C(=O)N[C@H]1CCNC(=O)[C@H]([C@@H](C)O)NC(=O)[C@H](CCN)NC(=O)[C@H](CCN)NC(=O)[C@H](CC(C)C)NC(=O)[C@@H](Cc2ccccc2)NC(=O)[C@@H](CCN)NC1=O)[C@@H](C)O.CC[C@H](C)CCCCC(=O)N[C@@H](CCN)C(=O)N[C@H](C(=O)N[C@@H](CCN)C(=O)N[C@H]1CCNC(=O)[C@H]([C@@H](C)O)NC(=O)[C@H](CCN)NC(=O)[C@H](CCN)NC(=O)[C@H](CC(C)C)NC(=O)[C@@H](Cc2ccccc2)NC(=O)[C@@H](CCN)NC1=O)[C@@H](C)O (X1-[Dab]T[Dab][Dab][dDab][dF]L[Dab][Dab]T; lactam 4-C)	–	–	–	–	–	–	–	–	–	Activity (Escherichia coli [20]): inactive; Activity (Staphylococcus aureus [21]): inactive; Activity (Cell membrane [22]): Active; Activity (Cell membrane [23]): Active; Activity (Cell membrane [24]): inactive; Activity (Escherichia coli [25]): inactive
C[C@H]1COc2c(N3CCN(C)CC3)c(F)cc3c(=O)c(C(=O)O)cn1c23 [LEVOFLOXACIN ANHYDROUS]	32 µM (≈ 11.6 µg/mL)	–	8 µM (≈ 2.89 µg/mL)	64 µM (≈ 23.1 µg/mL)	0.25 µM (≈ 0.0903 µg/mL)	> 256 µM	0.25 µM (≈ 0.0903 µg/mL)	2 µM (≈ 0.723 µg/mL)	64 µM (≈ 23.1 µg/mL)	Activity (Escherichia coli [26]): inactive; Activity (Escherichia coli [27]): inactive; Activity (Escherichia coli [28]): Active; Activity (Escherichia coli [29]): Active; Activity (Escherichia coli [30]): inactive; Activity (Escherichia coli [31]): Active; Activity (Escherichia coli [32]): Active; Activity (Escherichia coli [33]): inactive; Activity (Escherichia coli [34]): inactive
CO[C@H]1/C=C/O[C@@]2(C)Oc3c(C)c(O)c4c(O)c(c(/C=N/N5CCN(C)CC5)c(O)c4c3C2=O)NC(=O)/C(C)=C\C=C\[C@H](C)[C@H](O)[C@@H](C)[C@@H](O)[C@@H](C)[C@H](OC(C)=O)[C@@H]1C [RIFAMPIN]	4 µM (≈ 3.29 µg/mL)	–	2 µM (≈ 1.65 µg/mL)	16 µM (≈ 13.2 µg/mL)	0.5 µM (≈ 0.411 µg/mL)	16 µM (≈ 13.2 µg/mL)	0.5 µM (≈ 0.411 µg/mL)	8 µM (≈ 6.58 µg/mL)	64 µM (≈ 52.7 µg/mL)	fold change (FC) (Staphylococcus aureus [35]): 64; fold change (FC) (Escherichia coli [36]): 8
CN[C@H](CC(C)C)C(=O)N[C@H]1C(=O)N[C@@H](CC(N)=O)C(=O)N[C@H]2C(=O)N[C@H]3C(=O)N[C@H](C(=O)N[C@H](C(=O)O)c4cc(O)cc(O)c4-c4cc3ccc4O)[C@H](O)c3ccc(c(Cl)c3)Oc3cc2cc(c3O[C@@H]2O[C@H](CO)[C@@H](O)[C@H](O)[C@H]2O[C@H]2C[C@](C)(N)[C@H](O)[C@H](C)O2)Oc2ccc(cc2Cl)[C@H]1O [VANCOMYCIN]	> 256 µM	> 256 µM	2 µM (≈ 2.9 µg/mL)	> 256 µM	1 µM (≈ 1.45 µg/mL)	> 256 µM	1 µM (≈ 1.45 µg/mL)	256 µM (≈ 371 µg/mL)	> 256 µM	Activity (L02 [37]): 75%; Activity (HEK-293T [38]): 75%
